# Experimental data taken from patent US11884710B2, “Peptide compounds and methods of use in wound healing” (priority 2013, dated 2024).
# Tested on: PKCδ
# Experiment: Immunofluorescence for PKCδ in HCEC monolayers
# Format: cell-based, human
# Settings: PMA 1 μM; 15 minutes; scratched monolayers
# Procedure: HCEC monolayers were grown to confluency and were scratched with a 10 μl pipette tip or left unscratched, and then the monolayers were treated for 15 minutes with (A-B) buffer, (C-D) PMA (1 μM), (E-F) 250 ng/ml CAP37, and (G-J) 500 ng/ml CAP37. Cells were stained for PKCδ (250 ng/ml; (A-H)), and PKCα (1 μg/ml; (I-J)) and detected using immunofluorescence (4 μg/ml, ALEXA FLUOR® 488 dye (Life Technologies Corp., Grand Island, N.Y.)). […] Scratched monolayers that were treated for 18 hours with CAP37 (250 ng/ml; (L)) or left untreated (K) were stained for PKCδ. […] Scale bars, 20 μm.
# Immunofluorescence: HCECs and primary HCECs were cultured on Lab-Tek® II glass chamber slides (Nunc, Rochester, N.Y.) and starved overnight in basal media. For wounding studies, monolayers were scratched with a 10 μl pipette tip or left unscratched and treated with 1 μM phorbol 12-myristate 13-acetate (PMA, Sigma-Aldrich), rCAP37 (25-500 ng/ml), or basal KSFM (Gibco) for 15 minutes. After treatment, the cells were fixed in 4% (v/v) formaldehyde solution (Thermo, Rockford, Ill.) in PBS (Gibco) for 20 minutes at room temperature followed by permeabilization in 0.5% TRITON™-X 100 (Mallinckrodt, St. Louis, Mo.) in PBS for 10 minutes. Remaining formaldehyde was quenched with 0.05 M ammonium chloride (NH4Cl, Sigma-Aldrich, St. Louis, Mo.) in PBS for 10 minutes. […]
smiles,measurement,value
"CCCCCCCCCCCCCC(=O)O[C@@H]1[C@@H](C)[C@@]2(O)[C@@H](C=C(CO)C[C@]3(O)C(=O)C(C)=C[C@@H]23)[C@@H]2C(C)(C)[C@]12OC(C)=O [PMA, phorbol 12-myristate 13-acetate, reference compound]","PKCδ staining, in words",increased staining
